Experimental data taken from the supplement of paper PMC10307832.

Experiments:
Experiment in all cases: relative viability (nuclei count vs DMSO), 5 days (fraction); higher = more cells survive
AZ505 + Tozasertib = compound: C1CCC(CC1)N(CCNCCC2=C3C(=C(C=C2)O)NC(=O)CO3)C(=O)CCNCCC4=CC(=C(C=C4)Cl)Cl [AZ505] + Cc1cc(Nc2cc(N3CCN(C)CC3)nc(Sc3ccc(NC(=O)C4CC4)cc3)n2)n[nH]1 [Tozasertib] (partner 0.1 µM)
Summary of the method: (§1)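 Nuclei were stained with Hoechst during a one-step fixation (final 0.05% Triton X-100, 1% formaldehyde, 1 ug/ml Hoechst) carried out 5 days after dosing, then counted on 4× images. The cells, lung cancer lines in 1536-well plates, had been dosed by pin tool the day after seeding with one drug alone or a fixed anchor-drug dose plus five library-drug doses (not always all listed) in √10 steps. Relative viability is the nuclei count in treated wells divided by that in vehicle wells, and each value is the median of duplicate plates.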

Dactolisib + Bortezomib = compound: Cn1c(=O)n(-c2ccc(C(C)(C)C#N)cc2)c2c3cc(-c4cnc5ccccc5c4)ccc3ncc21 [Dactolisib] + CC(C)C[C@H](NC(=O)[C@H](Cc1ccccc1)NC(=O)c1cnccn1)B(O)O [Bortezomib] (partner 0.002 µM)
Summary of the method: as §1

Dactolisib + Foretinib = compound: Cn1c(=O)n(-c2ccc(C(C)(C)C#N)cc2)c2c3cc(-c4cnc5ccccc5c4)ccc3ncc21 [Dactolisib] + COc1cc2c(Oc3ccc(NC(=O)C4(C(=O)Nc5ccc(F)cc5)CC4)cc3F)ccnc2cc1OCCCN1CCOCC1 [Foretinib] (partner 0.25 µM)
Summary of the method: as §1

Dactolisib + Linsitinib = compound: Cn1c(=O)n(-c2ccc(C(C)(C)C#N)cc2)c2c3cc(-c4cnc5ccccc5c4)ccc3ncc21 [Dactolisib] + C[C@]1(O)C[C@@H](c2nc(-c3ccc4ccc(-c5ccccc5)nc4c3)c3c(N)nccn32)C1 [Linsitinib] (partner 1 µM)
Summary of the method: as §1

| Cell Line | relative viability (AZ505 + Tozasertib; first compound 0.08 µM) | relative viability (AZ505 + Tozasertib; first compound 0.253 µM) | relative viability (AZ505 + Tozasertib; first compound 0.8 µM) | relative viability (AZ505 + Tozasertib; first compound 2.53 µM) | relative viability (AZ505 + Tozasertib; first compound 8 µM) | relative viability (Dactolisib + Bortezomib; first compound 0.002 µM) | relative viability (Dactolisib + Bortezomib; first compound 0.006325 µM) | relative viability (Dactolisib + Bortezomib; first compound 0.02 µM) | relative viability (Dactolisib + Bortezomib; first compound 0.06325 µM) | relative viability (Dactolisib + Bortezomib; first compound 0.2 µM) | relative viability (Dactolisib + Foretinib; first compound 0.002 µM) | relative viability (Dactolisib + Foretinib; first compound 0.006325 µM) | relative viability (Dactolisib + Foretinib; first compound 0.02 µM) | relative viability (Dactolisib + Foretinib; first compound 0.06325 µM) | relative viability (Dactolisib + Foretinib; first compound 0.2 µM) | relative viability (Dactolisib + Linsitinib; first compound 0.002 µM) | relative viability (Dactolisib + Linsitinib; first compound 0.006325 µM) | relative viability (Dactolisib + Linsitinib; first compound 0.02 µM) | relative viability (Dactolisib + Linsitinib; first compound 0.06325 µM) | relative viability (Dactolisib + Linsitinib; first compound 0.2 µM) |
| --- | --- | --- | --- | --- | --- | --- | --- | --- | --- | --- | --- | --- | --- | --- | --- | --- | --- | --- | --- | --- |
| COR-L23 | 0.181 | 0.177 | 0.22 | 0.179 | 0.146 | 1.21 | 0.803 | 0.765 | 0.327 | 0.149 | 1.2 | 0.982 | 0.948 | 0.369 | 0.34 | 1.01 | 0.8 | 0.448 | 0.17 | 0.139 |
| BEN | 0.443 | 0.545 | 0.458 | 0.504 | 0.426 | 0.766 | 0.795 | 0.809 | 0.598 | 0.289 | 0.898 | 0.632 | 0.647 | 0.57 | 0.422 | 0.888 | 0.852 | 0.647 | 0.446 | 0.297 |
| NCI-H322M | 0.451 | 0.478 | 0.467 | 0.484 | 0.465 | 1.21 | 1.24 | 1.13 | 1.07 | 0.838 | 1.08 | 0.89 | 0.73 | 0.629 | 0.578 | 0.939 | 0.826 | 0.84 | 0.586 | 0.442 |
| NCI-H520 | 0.441 | 0.389 | 0.44 | 0.469 | 0.463 | 0.397 | 0.715 | 0.263 | 0.121 | 0.134 | 0.736 | 0.507 | 0.464 | 0.278 | 0.198 | 1.02 | 0.731 | 0.53 | 0.191 | 0.186 |
| ABC-1 | 0.116 | 0.185 | 0.168 | 0.168 | 0.167 | 0.345 | 0.296 | 0.303 | 0.312 | 0.247 | 1.03 | 1.11 | 0.665 | 0.427 | 0.5 | 0.948 | 0.614 | 0.694 | 0.363 | 0.326 |
| NCI-H1666 | 0.629 | 0.613 | 0.534 | 0.525 | 0.584 | 0.859 | 0.756 | 0.722 | 0.392 | 0.404 | 0.968 | 0.993 | 0.987 | 0.791 | 0.762 | 0.939 | 0.865 | 0.776 | 0.506 | 0.42 |
| NCI-H1993 | 0.611 | 0.529 | 0.58 | 0.539 | 0.529 | 0.94 | 0.689 | 0.754 | 0.522 | 0.455 | 0.706 | 0.774 | 0.61 | 0.473 | 0.492 | 0.674 | 0.686 | 0.734 | 0.645 | 0.73 |
| NCI-H1975 | 0.649 | 0.733 | 0.731 | 0.638 | 0.741 | 0.362 | 0.338 | 0.323 | 0.209 | 0.183 | 1.06 | 0.897 | 0.715 | 0.454 | 0.334 | 1.01 | 0.847 | 0.551 | 0.32 | 0.256 |
